Among the data in ChEMBL document CHEMBL4507288 (2021) are Ki and residual activity values, retold here.

In assay [1] the target is 5-hydroxytryptamine receptor 2A (Homo sapiens, UniProt P28223). In words: GPCRScan assay: inhibition of 5-HT2A. The arrangement: radioligand conc. used [nm] 1.2 – 2.4, parental cells HEKT.
Assay [2] addresses Testis-specific serine/threonine-protein kinase 1 (Homo sapiens) (UniProt Q9BXA7). The settings on record: Compound concentration 1000.0 nM.
In assay [3] the target is Citron Rho-interacting kinase (Homo sapiens) (UniProt O14578). The settings on record: Compound concentration 1000.0 nM.
Assay [4] deals with Mitogen-activated protein kinase kinase kinase 3 (Homo sapiens) (UniProt Q99759). The settings on record: Compound concentration 1000.0 nM.
In assay [5] the target is Ribosomal protein S6 kinase beta-1 (Homo sapiens) (UniProt P23443). The settings on record: Compound concentration 1000.0 nM.
Assay [6] has as its target Interleukin-1 receptor-associated kinase 4 (Homo sapiens) (UniProt Q9NWZ3). The settings on record: Compound concentration 1000.0 nM.
Assay [7] relates to Tyrosine-protein kinase ABL1 (Homo sapiens), P00519 [F317I]. The settings on record: Compound concentration 1000.0 nM.
The target of assay [8] is Tyrosine-protein kinase TXK (Homo sapiens) (UniProt P42681). The settings on record: Compound concentration 1000.0 nM.
The target in assay [9] is Activated CDC42 kinase 1 (Homo sapiens) (UniProt Q07912). The settings on record: Compound concentration 1000.0 nM.
For assay [10], the target named is Serine/threonine-protein kinase Sgk1 (Homo sapiens) (UniProt O00141). The settings on record: Compound concentration 1000.0 nM.
Assay [11] has as its target Mitogen-activated protein kinase 1 (Homo sapiens) (UniProt P28482). The settings on record: Compound concentration 1000.0 nM.
The target in assay [12] is Cyclin-dependent kinase-like 5 (Homo sapiens) (UniProt O76039). The settings on record: Compound concentration 1000.0 nM.
Assay [13] concerns the target Atypical kinase COQ8B, mitochondrial (Homo sapiens) (UniProt Q96D53). The settings on record: Compound concentration 1000.0 nM.
In assay [14] the target is Ribosomal protein S6 kinase alpha-6 (Homo sapiens) (UniProt Q9UK32). The settings on record: Compound concentration 1000.0 nM.
The target in assay [15] is Tyrosine-protein kinase JAK3 (Homo sapiens) (UniProt P52333). The settings on record: Compound concentration 1000.0 nM.
Assay [16] has as its target Testis-specific serine/threonine-protein kinase 3 (Homo sapiens) (UniProt Q96PN8). The settings on record: Compound concentration 1000.0 nM.
The target in assay [17] is Cyclin-dependent kinase 8 (Homo sapiens) (UniProt P49336). The settings on record: Compound concentration 1000.0 nM.
In assay [18] the target is Serine/threonine-protein kinase BRSK1 (Homo sapiens) (UniProt Q8TDC3). The settings on record: Compound concentration 1000.0 nM.
In assay [19] the target is Serine/threonine-protein kinase 35 (Homo sapiens) (UniProt Q8TDR2). The settings on record: Compound concentration 1000.0 nM.
The target of assay [20] is Serine/threonine-protein kinase tousled-like 2 (Homo sapiens) (UniProt Q86UE8). The settings on record: Compound concentration 1000.0 nM.
For assay [21], the target named is Receptor-interacting serine/threonine-protein kinase 4 (Homo sapiens) (UniProt P57078). The settings on record: Compound concentration 1000.0 nM.
The target of assay [22] is Ribosomal protein S6 kinase alpha-6 (Homo sapiens) (UniProt Q9UK32). The settings on record: Compound concentration 1000.0 nM. This is another data set of the same source.
Assay [23] addresses Tyrosine-protein kinase Yes (Homo sapiens) (UniProt P07947). The settings on record: Compound concentration 1000.0 nM.
Assay [24] deals with Mitogen-activated protein kinase kinase kinase kinase 4 (Homo sapiens) (UniProt O95819). The settings on record: Compound concentration 1000.0 nM.
The target of assay [25] is Phosphatidylinositol 4-kinase beta (Homo sapiens) (UniProt Q9UBF8). The settings on record: Compound concentration 1000.0 nM.
Assay [26] deals with Serine/threonine-protein kinase Sgk2 (Homo sapiens) (UniProt Q9HBY8). The settings on record: Compound concentration 1000.0 nM.
Assay [27] deals with Tyrosine-protein kinase Tec (Homo sapiens) (UniProt P42680). The settings on record: Compound concentration 1000.0 nM.
The target in assay [28] is cAMP-dependent protein kinase catalytic subunit beta (Homo sapiens) (UniProt P22694). The settings on record: Compound concentration 1000.0 nM.
Assay [29] has as its target Receptor-interacting serine/threonine-protein kinase 1 (Homo sapiens) (UniProt Q13546). The settings on record: Compound concentration 1000.0 nM.
Assay [30] relates to Epidermal growth factor receptor (Homo sapiens), P00533 [UNDEFINED MUTATION]. The settings on record: Compound concentration 1000.0 nM.
The target of assay [31] is Non-receptor tyrosine-protein kinase TYK2 (Homo sapiens) (UniProt P29597). The settings on record: Compound concentration 1000.0 nM.
Assay [32] concerns the target RAC-alpha serine/threonine-protein kinase (Homo sapiens) (UniProt P31749). The settings on record: Compound concentration 1000.0 nM.
The target in assay [33] is High affinity nerve growth factor receptor (Homo sapiens) (UniProt P04629). The settings on record: Compound concentration 1000.0 nM.
For assay [34], the target named is Beta-adrenergic receptor kinase 1 (Homo sapiens) (UniProt P25098). The settings on record: Compound concentration 1000.0 nM.
Assay [35] has as its target Serine/threonine-protein kinase TAO2 (Homo sapiens) (UniProt Q9UL54). The settings on record: Compound concentration 1000.0 nM.
For assay [36], the target named is Serine/threonine-protein kinase PAK 2 (Homo sapiens) (UniProt Q13177). The settings on record: Compound concentration 1000.0 nM.
The target of assay [37] is Ephrin type-B receptor 1 (Homo sapiens) (UniProt P54762). The settings on record: Compound concentration 1000.0 nM.
The target of assay [38] is Dual specificity protein kinase TTK (Homo sapiens) (UniProt P33981). The settings on record: Compound concentration 1000.0 nM.
The target in assay [39] is Serine/threonine-protein kinase Nek9 (Homo sapiens) (UniProt Q8TD19). The settings on record: Compound concentration 1000.0 nM.
Assay [40] addresses Tyrosine-protein kinase Blk (Homo sapiens) (UniProt P51451). The settings on record: Compound concentration 1000.0 nM.
Assay [41] concerns Epidermal growth factor receptor (Homo sapiens), P00533 [UNDEFINED MUTATION]. The settings on record: Compound concentration 1000.0 nM. The source holds these as a separate data set.
For assay [42], the target named is Serine/threonine-protein kinase RIO3 (Homo sapiens) (UniProt O14730). The settings on record: Compound concentration 1000.0 nM.
Assay [43] has as its target Serine/threonine-protein kinase LATS2 (Homo sapiens) (UniProt Q9NRM7). The settings on record: Compound concentration 1000.0 nM.
The subject of assay [44] is Mast/stem cell growth factor receptor Kit (Homo sapiens), P10721 [A829P]. The settings on record: Compound concentration 1000.0 nM.
Assay [45] concerns the target Serine/threonine-protein kinase RIO1 (Homo sapiens) (UniProt Q9BRS2). The settings on record: Compound concentration 1000.0 nM.

Chain of Ribosomal protein S6 kinase alpha-6 (Homo sapiens) (Q9UK32 whole entry): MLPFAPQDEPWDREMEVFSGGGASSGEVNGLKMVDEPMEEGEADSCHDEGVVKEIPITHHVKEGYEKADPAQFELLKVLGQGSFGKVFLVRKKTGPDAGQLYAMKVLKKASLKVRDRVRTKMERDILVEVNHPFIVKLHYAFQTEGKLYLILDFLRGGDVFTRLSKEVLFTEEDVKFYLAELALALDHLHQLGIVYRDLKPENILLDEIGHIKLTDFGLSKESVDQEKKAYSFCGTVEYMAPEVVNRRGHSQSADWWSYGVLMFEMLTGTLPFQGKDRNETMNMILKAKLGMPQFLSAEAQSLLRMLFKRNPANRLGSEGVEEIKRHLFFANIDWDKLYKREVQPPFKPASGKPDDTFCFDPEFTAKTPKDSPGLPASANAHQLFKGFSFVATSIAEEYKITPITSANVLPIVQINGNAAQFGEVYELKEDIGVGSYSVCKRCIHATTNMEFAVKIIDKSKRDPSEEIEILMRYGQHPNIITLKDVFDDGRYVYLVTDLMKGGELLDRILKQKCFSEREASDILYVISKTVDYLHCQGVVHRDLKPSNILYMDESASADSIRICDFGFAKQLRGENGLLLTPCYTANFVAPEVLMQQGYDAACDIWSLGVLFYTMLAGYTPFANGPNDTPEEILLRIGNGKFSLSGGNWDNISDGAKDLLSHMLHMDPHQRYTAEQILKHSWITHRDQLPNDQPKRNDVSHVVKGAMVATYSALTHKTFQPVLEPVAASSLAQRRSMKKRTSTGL
Chain of Epidermal growth factor receptor (Homo sapiens), P00533 [UNDEFINED MUTATION] (P00533 whole entry, looked up, change not shown): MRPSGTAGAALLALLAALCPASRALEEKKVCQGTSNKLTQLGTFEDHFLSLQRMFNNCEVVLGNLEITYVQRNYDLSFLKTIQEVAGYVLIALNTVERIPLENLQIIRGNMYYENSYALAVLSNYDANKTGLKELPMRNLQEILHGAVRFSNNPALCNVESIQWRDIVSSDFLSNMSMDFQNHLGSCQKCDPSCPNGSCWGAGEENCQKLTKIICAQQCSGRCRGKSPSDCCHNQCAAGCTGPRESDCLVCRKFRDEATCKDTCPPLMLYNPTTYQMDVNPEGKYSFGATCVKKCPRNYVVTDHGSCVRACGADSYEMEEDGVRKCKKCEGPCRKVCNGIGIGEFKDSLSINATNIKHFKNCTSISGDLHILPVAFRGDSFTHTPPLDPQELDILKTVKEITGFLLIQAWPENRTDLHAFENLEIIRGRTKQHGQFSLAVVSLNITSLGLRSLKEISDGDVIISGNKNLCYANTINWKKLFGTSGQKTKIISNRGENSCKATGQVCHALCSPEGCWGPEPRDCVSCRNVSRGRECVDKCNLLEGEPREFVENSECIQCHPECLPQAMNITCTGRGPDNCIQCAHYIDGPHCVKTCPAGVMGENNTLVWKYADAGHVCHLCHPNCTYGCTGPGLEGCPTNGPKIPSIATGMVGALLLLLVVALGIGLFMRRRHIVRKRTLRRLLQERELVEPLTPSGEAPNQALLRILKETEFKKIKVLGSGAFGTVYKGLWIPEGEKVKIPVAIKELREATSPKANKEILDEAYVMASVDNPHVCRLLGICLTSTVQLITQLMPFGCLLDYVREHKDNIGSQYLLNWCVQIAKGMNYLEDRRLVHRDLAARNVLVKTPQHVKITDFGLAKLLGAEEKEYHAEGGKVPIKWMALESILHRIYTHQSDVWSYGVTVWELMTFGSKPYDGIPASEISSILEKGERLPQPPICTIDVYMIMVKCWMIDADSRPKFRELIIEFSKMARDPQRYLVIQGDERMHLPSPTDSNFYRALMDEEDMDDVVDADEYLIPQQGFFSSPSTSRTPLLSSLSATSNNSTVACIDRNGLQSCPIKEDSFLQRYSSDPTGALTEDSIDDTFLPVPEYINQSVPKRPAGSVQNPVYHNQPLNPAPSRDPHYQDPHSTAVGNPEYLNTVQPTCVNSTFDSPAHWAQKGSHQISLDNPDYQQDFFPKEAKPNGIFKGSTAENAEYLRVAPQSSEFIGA
Chain of High affinity nerve growth factor receptor (Homo sapiens) (P04629 33-796 limits assumed): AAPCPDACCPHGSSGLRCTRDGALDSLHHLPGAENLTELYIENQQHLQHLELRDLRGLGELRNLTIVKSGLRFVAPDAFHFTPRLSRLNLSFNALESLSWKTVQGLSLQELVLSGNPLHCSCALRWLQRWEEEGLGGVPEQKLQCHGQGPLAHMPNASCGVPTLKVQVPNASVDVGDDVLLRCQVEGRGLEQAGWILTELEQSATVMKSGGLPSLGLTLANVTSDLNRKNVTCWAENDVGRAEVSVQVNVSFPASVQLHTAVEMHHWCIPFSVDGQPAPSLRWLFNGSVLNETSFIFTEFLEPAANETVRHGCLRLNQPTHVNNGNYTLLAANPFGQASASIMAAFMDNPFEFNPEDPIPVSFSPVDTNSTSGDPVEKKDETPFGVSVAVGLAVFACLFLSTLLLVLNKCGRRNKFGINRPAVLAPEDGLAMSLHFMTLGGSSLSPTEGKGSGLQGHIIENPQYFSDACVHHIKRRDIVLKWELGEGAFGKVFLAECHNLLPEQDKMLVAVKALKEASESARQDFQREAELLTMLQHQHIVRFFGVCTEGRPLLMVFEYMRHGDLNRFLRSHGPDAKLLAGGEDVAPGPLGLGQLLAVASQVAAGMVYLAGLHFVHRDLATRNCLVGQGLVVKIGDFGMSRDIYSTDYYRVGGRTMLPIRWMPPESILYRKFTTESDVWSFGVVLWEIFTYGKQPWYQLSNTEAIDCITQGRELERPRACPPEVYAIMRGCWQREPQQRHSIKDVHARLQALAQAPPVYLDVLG
Chain of Phosphatidylinositol 4-kinase beta (Homo sapiens) (Q9UBF8 2-816 limits assumed): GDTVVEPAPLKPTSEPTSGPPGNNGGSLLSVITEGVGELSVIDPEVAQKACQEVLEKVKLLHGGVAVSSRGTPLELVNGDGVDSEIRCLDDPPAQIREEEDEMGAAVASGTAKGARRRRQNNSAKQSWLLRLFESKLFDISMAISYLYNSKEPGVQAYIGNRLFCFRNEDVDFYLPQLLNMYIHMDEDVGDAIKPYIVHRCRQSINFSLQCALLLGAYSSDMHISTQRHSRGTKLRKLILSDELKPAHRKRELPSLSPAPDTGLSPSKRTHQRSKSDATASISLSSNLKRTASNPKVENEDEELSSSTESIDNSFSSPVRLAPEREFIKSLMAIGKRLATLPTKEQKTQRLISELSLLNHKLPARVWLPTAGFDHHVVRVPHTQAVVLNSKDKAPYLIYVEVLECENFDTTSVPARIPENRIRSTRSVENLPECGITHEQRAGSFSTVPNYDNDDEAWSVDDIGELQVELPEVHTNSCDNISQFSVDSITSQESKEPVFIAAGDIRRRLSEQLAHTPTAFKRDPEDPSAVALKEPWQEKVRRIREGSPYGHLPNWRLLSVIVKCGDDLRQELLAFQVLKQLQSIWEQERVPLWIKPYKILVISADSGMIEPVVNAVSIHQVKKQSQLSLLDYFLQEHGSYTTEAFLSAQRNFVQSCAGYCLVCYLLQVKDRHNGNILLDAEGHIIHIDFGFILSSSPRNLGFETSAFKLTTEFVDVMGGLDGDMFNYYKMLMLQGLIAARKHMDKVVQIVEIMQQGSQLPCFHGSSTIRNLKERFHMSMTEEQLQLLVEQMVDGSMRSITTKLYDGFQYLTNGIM
Chain of Tyrosine-protein kinase JAK3 (Homo sapiens) (P52333 whole entry): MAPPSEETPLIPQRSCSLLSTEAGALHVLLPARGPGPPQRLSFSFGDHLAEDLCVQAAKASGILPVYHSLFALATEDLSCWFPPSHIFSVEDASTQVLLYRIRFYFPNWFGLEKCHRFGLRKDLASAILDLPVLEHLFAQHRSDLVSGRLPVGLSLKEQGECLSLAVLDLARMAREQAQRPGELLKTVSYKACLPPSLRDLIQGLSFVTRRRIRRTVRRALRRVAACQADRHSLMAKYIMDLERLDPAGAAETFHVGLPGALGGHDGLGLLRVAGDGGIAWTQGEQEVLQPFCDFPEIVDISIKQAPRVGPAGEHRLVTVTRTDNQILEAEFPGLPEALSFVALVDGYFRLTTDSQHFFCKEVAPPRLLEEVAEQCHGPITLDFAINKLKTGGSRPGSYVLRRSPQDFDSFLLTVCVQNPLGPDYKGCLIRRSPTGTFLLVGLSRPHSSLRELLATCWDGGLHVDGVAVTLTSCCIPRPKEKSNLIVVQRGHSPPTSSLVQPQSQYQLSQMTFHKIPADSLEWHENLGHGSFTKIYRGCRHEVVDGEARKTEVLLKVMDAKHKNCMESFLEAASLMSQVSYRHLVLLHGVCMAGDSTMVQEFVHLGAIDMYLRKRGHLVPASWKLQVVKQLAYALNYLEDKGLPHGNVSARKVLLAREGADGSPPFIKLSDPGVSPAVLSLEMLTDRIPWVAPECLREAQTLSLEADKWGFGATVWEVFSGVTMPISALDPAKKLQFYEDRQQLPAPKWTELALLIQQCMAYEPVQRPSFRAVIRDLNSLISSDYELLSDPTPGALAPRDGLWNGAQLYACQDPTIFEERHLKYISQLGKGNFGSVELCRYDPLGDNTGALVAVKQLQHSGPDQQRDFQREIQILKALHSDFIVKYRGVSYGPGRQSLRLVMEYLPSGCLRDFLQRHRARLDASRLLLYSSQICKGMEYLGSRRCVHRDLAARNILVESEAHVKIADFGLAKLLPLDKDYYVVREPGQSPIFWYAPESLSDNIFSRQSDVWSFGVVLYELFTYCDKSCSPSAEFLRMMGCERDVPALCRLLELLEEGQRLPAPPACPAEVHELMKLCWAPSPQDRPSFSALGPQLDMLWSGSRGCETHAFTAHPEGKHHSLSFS
Chain of Serine/threonine-protein kinase Sgk1 (Homo sapiens) (O00141 whole entry): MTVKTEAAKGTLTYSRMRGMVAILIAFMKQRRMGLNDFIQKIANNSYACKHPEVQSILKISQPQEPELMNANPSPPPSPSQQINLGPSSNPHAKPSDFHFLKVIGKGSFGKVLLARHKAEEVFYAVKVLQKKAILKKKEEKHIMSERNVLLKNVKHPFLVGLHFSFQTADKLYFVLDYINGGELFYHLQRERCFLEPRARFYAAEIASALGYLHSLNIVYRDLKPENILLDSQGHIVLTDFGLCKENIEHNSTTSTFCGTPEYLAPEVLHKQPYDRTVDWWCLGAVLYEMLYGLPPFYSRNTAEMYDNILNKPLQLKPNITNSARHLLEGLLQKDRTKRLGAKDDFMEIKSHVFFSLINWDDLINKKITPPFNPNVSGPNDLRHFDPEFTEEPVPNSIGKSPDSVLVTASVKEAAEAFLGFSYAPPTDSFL

With `CC(C)(C)OC(=O)N1CCCC1CNC1CCC(c2cc(F)ccc2F)(S(=O)(=O)c2ccc(Cl)cc2)CC1` (stereo not given) [GSI-NC], the Ki in [1] was found to be 0.478 µM.
Consider `O=S(=O)(NC1CCC(c2cc(F)ccc2F)(S(=O)(=O)c2ccc(Cl)cc2)CC1)C(F)(F)F` (stereo not given) [MRK-560], for which the residual activity was 100% in [2]; 0% in assay [3]; 100% in [4]; 100% in assay [5]; 97% in [6]; 84% in assay [7]. Further, the residual activity was 99% in assay [8]; 96% in assay [9]; 83% in [10]; 100% in [11]; 87% in assay [12]; 88% in [13]. The residual activity was 83% in [14]; 100% in assay [15]; 88% in assay [16]; 100% in assay [17]; 92% in assay [18]; 100% in assay [19]. Besides, the residual activity in [20] was 100%; in assay [21], 91%; in [22] it was 90%; in assay [23] it was 89%; in assay [24], 71%; in assay [25] it was 82%. For the same compound, the residual activity is 93% in assay [26]; 100% in assay [27]; 98% in assay [28]; 100% in assay [29]; 80% in assay [30]; 86% in assay [31]. Further, the residual activity in assay [32] is 5%; in assay [33], 76%; in [34], 73%; in assay [35] it was 100%; in assay [36], 100%; in assay [37], 100%. The residual activity in assay [38] was 70%; in assay [39], 100%; in assay [40], 89%; in [41] it was 100%; in assay [42], 83%; in assay [43] it was 0%. Besides, the residual activity in assay [44] is 100%; in assay [45] it was 98%.
